# Test: recombinant barcode read abundance after kanamycin selection (control-corrected) (log10(CPM+1)); higher = more efficient recombination; sequences stand for … in AGTGCAGAGAAAATCGGCCAGTTTTCTCTGCCTGCAGTCCGCATGCCGT…AGATTTATGCAGCGGACTGCCTTTCTCCCAAAGTGATAAACCGGACAGTATCATGGACCGGTTTTCCCGGTAATCCGTATTTGCAAGGTTGGTTTCACT; site = the 11-nt target
# Description: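 Pooled E. coli target-specificity screen for the IS621 bridge recombinase. Each library plasmid pairs an 11-nt target (CT core) with a bridge RNA whose target-binding loop (9-nt LTG + 4-nt RTG) is reprogrammed; the rest of the 177-nt WT IS621 bridge RNA scaffold is fixed. The plasmid is co-electroporated with a WT donor plasmid; recombinase is induced with 0.1 mM IPTG and recombinants are selected on kanamycin. Recombinant barcodes are sequenced, converted to CPM, averaged over two biological replicates and corrected by the unselected control CPM. Molecule = full bridge RNA written as DNA: LTG = specificity nt 1-9, RTG = reverse complement of specificity nt 8-11, in the WT scaffold.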
# 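Further: IS621 recombinase and bridge RNA in Escherichia coli cells.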
row,Sequence,recombinant barcode read abundance (log10)
1,ACAGAGACTTGGGTTCTAACCTGTTGCGC (site ACAGAGACTGC),1.46
2,CCGCGGACTTGGGTTCTAACCTGTTGCTT (site CCGCGGACTAA),0.578
3,GGATCCTCTTGGGTTCTAACCTGTTGCCG (site GGATCCTCTCG),1.45
4,TGTGACTCTTGGGTTCTAACCTGTTGCCT (site TGGGACTCTAG),0.0547
5,TAGGTGTCTTGGGTTCTAACCTGTTGCCT (site TAAGTGTCTAG),1.04
6,CCAGAAGCTTGGGTTCTAACCTGTTGCGT (site CCAGTAGCTCC),0.434
7,GTGTAGGCTTGGGTTCTAACCTGTTGCAG (site GTGTAGGCTCT),2.66
8,TTCTTACCTTGGGTTCTAACCTGTTGCCT (site TACTTACCTAG),0.0709
9,TGCCAGACTTGGGTTCTAACCTGTTGCGT (site AGCCACACTAC),0.0104
10,TAGTAGTCTTGGGTTCTAACCTGTTGCGT (site TAGTAGTCTAA),0.509
11,ATGCCCACTTGGGTTCTAACCTGTTGCCT (site ATGCCAACTAG),0.0683
12,CGGAATCCTTGGGTTCTAACCTGTTGCCT (site CGGAATCCTAG),0.864
13,CAAACTCCTTGGGTTCTAACCTGTTGCGT (site CAAACTCCTAC),0.951
14,CTCGACACTTGGGTTCTAACCTGTTGCCT (site CTGGACACTAG),0.0603
15,ACGCTAGCTTGGGTTCTAACCTGTTGCCT (site GCGCTAGCTAG),0.226
16,CCAGGGACTTGGGTTCTAACCTGTTGCCT (site CCACGGACTAG),0.294
17,CTTCGGGCTTGGGTTCTAACCTGTTGCAT (site CTTTGAGCTAT),0.242
18,AATTGTCCTTGGGTTCTAACCTGTTGCTT (site AATTGTCCTAT),0.125
19,CTTAGGACTTGGGTTCTAACCTGTTGCCA (site CTTAGGACTGG),0.0906
20,ATTACCTCTTGGGTTCTAACCTGTTGCCT (site ACTACCTCTAG),0.0829
21,TACTAAGCTTGGGTTCTAACCTGTTGCTT (site TACTAAGCTAC),0.0381

row,Sequence,recombinant barcode read abundance (log10)
1,TAGGCCACTTGGGTTCTAACCTGTTGCTT (site TAGGCCACTAG),0.36
2,CAGCGTGCTTGGGTTCTAACCTGTTGCCT (site CCGCGTGCTAG),0.318
3,ATCTTAACTTGGGTTCTAACCTGTTGCCT (site ATCTTAGCTAG),0.337
4,GGTCACCCTTGGGTTCTAACCTGTTGCGG (site GGTTACCCTCC),0.16
5,AATTCGACTTGGGTTCTAACCTGTTGCCT (site ATTTCGACTAG),0
6,AGTTTCACTTGGGTTCTAACCTGTTGCCT (site AGTTGCACTAG),0.0233
7,AAGCACCCTTGGGTTCTAACCTGTTGCAG (site AAGCACCCTCT),2.59
8,AATGGGGCTTGGGTTCTAACCTGTTGCCT (site AATGGGCCTAG),0.189
9,GTACCGCCTTGGGTTCTAACCTGTTGCCT (site GTACAGCCTAG),0.483
10,CACGGTCCTTGGGTTCTAACCTGTTGCCT (site CTCGGTGCTAG),0.0233
11,GTCCGTCCTTGGGTTCTAACCTGTTGCCT (site GTCCGTCCTAC),0.0319
12,ATTGGATCTTGGGTTCTAACCTGTTGCCT (site ATTGGCTCTAG),0.0247
13,TAAATCACTTGGGTTCTAACCTGTTGCCG (site ACGTATGCTAT),0.0241
14,ACGATACCTTGGGTTCTAACCTGTTGCCT (site ACGATACCTAG),0.967
15,TAGAGCACTTGGGTTCTAACCTGTTGCCT (site CAGAGCACTAG),0.114
16,AGGCTGCCTTGGGTTCTAACCTGTTGCCT (site AGGCTGACTAG),0.126
17,GAGCTTACTTGGGTTCTAACCTGTTGCCT (site GCGCTTACTAG),0.0105
18,GTTCAACCTTGGGTTCTAACCTGTTGCCT (site GATCAACCTAG),0.242
19,TCGTCACCTTGGGTTCTAACCTGTTGCCT (site GCGTCACCTAG),0.139
20,TCCGAGACTTGGGTTCTAACCTGTTGCCT (site TCCGAGACTTG),0.157
21,ACGGGATCTTGGGTTCTAACCTGTTGCCT (site GCGGGATCTAG),0.129

row,Sequence,recombinant barcode read abundance (log10)
1,CGTGGTCCTTGGGTTCTAACCTGTTGCCT (site CGTGGTCCTAC),0.413
2,CATGAGACTTGGGTTCTAACCTGTTGCGG (site GCGATCCCTAA),0.0802
3,CTAACCTCTTGGGTTCTAACCTGTTGCAT (site CTAGCCTCTAT),0.151
4,GCGTTGCCTTGGGTTCTAACCTGTTGCCT (site GTGTTGCCTAG),0.0893
5,CCTACACCTTGGGTTCTAACCTGTTGCCT (site CCTACATCTAG),0.52
6,TCTGGGCCTTGGGTTCTAACCTGTTGCTT (site TCTGGGCCTAA),0.0924
7,CAACGGCCTTGGGTTCTAACCTGTTGCCT (site CAAGGGCCTAG),0.55
8,CATAACGCTTGGGTTCTAACCTGTTGCCT (site GCATCTACTTA),0.102
9,ACATGTCCTTGGGTTCTAACCTGTTGCAT (site ACATGTCCTAT),1.99
10,ACCTACTCTTGGGTTCTAACCTGTTGCCT (site ACCTACGCTAG),0.0426
11,TCCAGTCCTTGGGTTCTAACCTGTTGCTG (site TCCAGTCCTCA),0.285
12,CTGCCCTCTTGGGTTCTAACCTGTTGCCT (site CGGCCCTCTAG),0.0113
13,CCTTGCACTTGGGTTCTAACCTGTTGCGA (site CCTCGCACTTC),0.0306
14,CCGTCTACTTGGGTTCTAACCTGTTGCTT (site CCGTCTACTGA),0.0444
15,AACTCTCCTTGGGTTCTAACCTGTTGCAT (site AACTTTCCTAT),0.0336
16,ACTCAGGCTTGGGTTCTAACCTGTTGCCG (site ACTCAGGCTCG),0.541
17,GCGCTCCCTTGGGTTCTAACCTGTTGCCT (site GCGCTCCCTAG),0.926
18,GTAACCTCTTGGGTTCTAACCTGTTGCTC (site GTAACCTCTGA),2.05
19,CCATCCTCTTGGGTTCTAACCTGTTGCTT (site CAATCCTCTAA),0.04
20,CTAGTCTCTTGGGTTCTAACCTGTTGCGT (site CTAGTCTCTAC),3.07
21,GAGTGGCCTTGGGTTCTAACCTGTTGCGA (site GAGTGGCCTTC),2.02

row,Sequence,recombinant barcode read abundance (log10)
1,AGGGTAGCTTGGGTTCTAACCTGTTGCCT (site AGGGTAGCTAG),1.04
2,GTCGCGACTTGGGTTCTAACCTGTTGCCT (site GTCGCGCCTAG),0.353
3,CTACATCCTTGGGTTCTAACCTGTTGCTT (site CTACACCCTAA),0.157
4,CACAAACCTTGGGTTCTAACCTGTTGCAG (site AGATGTGCTAG),0.054
5,GATGTATCTTGGGTTCTAACCTGTTGCCT (site GATGTATCTAG),1.09
6,AGTACAACTTGGGTTCTAACCTGTTGCCT (site AGAACAACTAG),0.134
7,ATCTTAACTTGGGTTCTAACCTGTTGCCT (site ATCTTACCTAG),0.643
8,GGGTTCCCTTGGGTTCTAACCTGTTGCCT (site GGGTTCCCTAG),2.11
9,GACCGTCCTTGGGTTCTAACCTGTTGCCT (site GACCGTCCTAC),0.1
10,AACACGTCTTGGGTTCTAACCTGTTGCCT (site AAATCGTCTAG),0.0544
11,CGTTGTTCTTGGGTTCTAACCTGTTGCCT (site CGTTGTTCTAG),0.163
12,CTAGTAGCTTGGGTTCTAACCTGTTGCGT (site CTAGTAGCTAC),2.25
13,GCTTTACCTTGGGTTCTAACCTGTTGCTT (site GCTTCACCTAG),0.132
14,AGCTACCCTTGGGTTCTAACCTGTTGCTT (site ACCTACTCTAA),0.0582
15,TCAGCATCTTGGGTTCTAACCTGTTGCCT (site TCAGGATCTAG),0.0504
16,CCGACTTCTTGGGTTCTAACCTGTTGCCT (site CTGACTTCTAG),0.129
17,GTGTGTACTTGGGTTCTAACCTGTTGCCT (site GTGTGTACTAG),1.21
18,TTAGCGTCTTGGGTTCTAACCTGTTGCCT (site TTAGCTTCTAG),0.129
19,AGACCTCCTTGGGTTCTAACCTGTTGCTT (site AGACATCCTAA),0.0481

# From the supplement of paper PMC11208160
